pEC50: −log10 of the molar value.
These compounds were tested on C666-1 cells (assay: C666-1 Cell Viability Assay (Resazurin cytotoxicity test)). Conditions: Homo sapiens, C6661, EB virus-positive C666-1 cells, 72 hours treatment, 100-0.78 micromole/L, read-out: Inhibitory Rate.
Format: cell-based
Experimental: In order to evaluate the inhibitory effect of the small molecular compound of the present disclosure on EBNA1 at the cellular level, a cytotoxicity test was performed.
As mentioned in the Background of the present disclosure, nasopharyngeal carcinoma is a kind of disease highly associated with latent infection of EB virus. EB virus in latent state only expresses limited proteins to maintain its genome replication, among which EBNA1 protein is an essential functional protein. Studies have confirmed that inhibition of EBNA1 can reduce the proliferation of the corresponding nasopharyngeal carcinoma cells or kill them. Therefore, EB virus-positive nasopharyngeal carcinoma tumor cells (C666-1 cells) are selected for test to verify the effect of the small molecular compound of the present disclosure.
During testing, 100 microliters of different cell lines were inoculated onto a transparent 96-well plate, and 5×10^3 cells were inoculated in each well for C666-1 cells. After the cells were cultured in an incubator under […] at 37° C. for 24 hours, 10 microliters of compound with a concentration ranging from 1 mmol/L to 7.8 micromol/L were added to each well (8 points, double dilution, the final concentration was 100-0.78 micromole/L), and treated in the incubator under carbon dioxide at 37° C. for 72 hours. Cell viability was assessed using the redox indicator Resazurin. After addition of 10 microliters of 600 micromole/liter Resazurin to each well and incubation at 37° C. for 3 hours. Using a Tecan microplate reader, the fluorescence signals were detected at an […]. A software was used to fit the inhibition curve and calculate half-maximal effect concentration (EC50). The selectivity of compound activity was assessed by comparing the EC50 values of EB virus-positive and EB virus-negative cell lines.

SMILES | pEC50
COC(=O)c1cccc(N2CC(Oc3cccc(COc4cccnc4)c3)C2)c1-n1cccc1 [Example 21, methyl 3-(3-(3-((pyridin-3-yloxy)methyl)phenoxy)azetidin-1-yl)-2-(1H-pyrrol-1-yl) benzoate] | 4.30 to 5.00
COC(=O)c1cccc(C#Cc2ccc(NC(=O)Nc3cccnc3)c(O)c2)c1-c1ccccc1 [Example 22, methyl 6-((3-hydroxy-4-(3-(pyridin-3-yl)ureido)phenyl)ethynyl)-[1,1′-biphenyl]-2-carboxylate] | > 6.00
COC(=O)c1cccc(N2CC(Oc3ccc(CNc4cccnc4)cc3)C2)c1-n1cccc1 [Example 23, methyl 3-(3-(4-((pyridin-3-ylamino)methyl)phenoxy)azetidin-1-yl)-2-(1H-pyrrol-1-yl) benzoate] | 4.30 to 5.00
O=C(O)c1cccc(N2CC(Oc3ccc(CNc4cccnc4)cc3)C2)c1-n1cccc1 [Example 23a, 3-(3-(4-((pyridin-3-ylamino)methyl)phenoxy)azetidin-1-yl)-2-(1H-pyrrol-1-yl) benzoic acid] | 4.30 to 5.00
O=C(NO)c1cccc(N2CC(Oc3ccc(CNc4cccnc4)cc3)C2)c1-n1cccc1 [Example 23b, N-hydroxy-3-(3-(4-((pyridin-3-ylamino)methyl)phenoxy)azetidin-1-yl)-2-(1H-pyrrol-1-yl) benzamide] | > 6.00
COC(=O)c1cccc(N2CC(Oc3ccc(OCc4cccnc4)cc3)C2)c1-n1cccc1 [Example 24, methyl 3-(3-(4-(pyridin-3-ylmethoxy)phenoxy)azetidin-1-yl)-2-(1H-pyrrol-1-yl) benzoate] | 5.00 to 6.00
O=C(O)c1cccc(N2CC(Oc3ccc(OCc4cccnc4)cc3)C2)c1-n1cccc1 [Example 24a, 3-(3-(4-(pyridin-3-ylmethoxy)phenoxy)azetidin-1-yl)-2-(1H-pyrrol-1-yl) benzoic acid] | 4.30 to 5.00
O=C(NO)c1cccc(N2CC(Oc3ccc(OCc4cccnc4)cc3)C2)c1-n1cccc1 [Example 24b, N-hydroxy-3-(3-(4-(pyridin-3-ylmethoxy)phenoxy)azetidin-1-yl)-2-(1H-pyrrol-1-yl) benzamide] | > 6.00
COC(=O)c1cccc(N2CC(Oc3ccc(Oc4cccnc4)cc3)C2)c1-n1cccc1 [Example 25, methyl 3-(3-(4-(pyridin-3-yloxy)phenoxy)azetidin-1-yl)-2-(1H-pyrrol-1-yl) benzoate] | < 4.30
O=C(O)c1cccc(N2CC(Oc3ccc(Oc4cccnc4)cc3)C2)c1-n1cccc1 [Example 25a, 3-(3-(4-(pyridin-3-yloxy)phenoxy)azetidin-1-yl)-2-(1H-pyrrol-1-yl) benzoic acid] | < 4.30
COC(=O)c1cccc(N2CC(Oc3ccc(Oc4ccncc4)cc3)C2)c1-n1cccc1 [Example 26, methyl 3-(3-(4-(pyridin-4-yloxy)phenoxy)azetidin-1-yl)-2-(1H-pyrrol-1 - yl) benzoate] | 5.00 to 6.00
O=C(O)c1cccc(N2CC(Oc3ccc(Oc4ccncc4)cc3)C2)c1-n1cccc1 [Example 26a, 3-(3-(4-(pyridin-4-yloxy)phenoxy)azetidin-1 - yl)-2-(1H-pyrrol-1-yl) benzoic acid] | 4.30 to 5.00
COC(=O)c1cccc(N2CC(Oc3ccc(COCc4cccnc4)cc3)C2)c1-n1cccc1 [Example 27, methyl 3-(3-(4-((pyridin-3-ylmethoxy)methyl)phenoxy)azetidin-1-yl)-2-(1H-pyrrol-1-yl) benzoate] | 4.30 to 5.00
O=C(O)c1cccc(N2CC(Oc3ccc(COCc4cccnc4)cc3)C2)c1-n1cccc1 [Example 27a, 3-(3-(4-((pyridin-3-ylmethoxy)methyl)phenoxy)azetidin-1-yl)-2-(1H-pyrrol-1-yl) benzoic acid] | < 4.30
O=C(NO)c1cccc(N2CC(Oc3ccc(COCc4cccnc4)cc3)C2)c1-n1cccc1 [Example 27b, N-Hydroxy-3-(3-(4-((pyridin-3-ylmethoxy)methyl)phenoxy)azetidin-1-yl)-2-(1H-pyrrol-1-yl)benzamide] | > 6.00
COC(=O)c1cccc(N2CC(Oc3ccc(/C=C/c4cccnc4)cc3)C2)c1-n1cccc1 [Example 28, methyl (E)-3-(3-(4-(2-(pyridin-3-yl)vinyl)phenoxy)azetidin-1-yl)-2-(1H-pyrrol-1-yl) benzoate] | < 4.30
O=C(O)c1cccc(N2CC(Oc3ccc(/C=C/c4cccnc4)cc3)C2)c1-n1cccc1 [Example 28a, (E)-3-(3-(4-(2-(pyridin-3-yl)vinyl)phenoxy)azetidin-1-yl)-2-(1H-pyrrol-1-yl) benzoic acid] | 5.00 to 6.00

SMILES | pEC50
O=C(NO)c1cccc(N2CC(Oc3ccc(/C=C/c4cccnc4)cc3)C2)c1-n1cccc1 [Example 28b, (E)-N-hydroxy-3-(3-(4-(2-(pyridin-3-yl)vinyl)phenoxy)azetidin-1-yl)-2-(1H-pyrrol-1-yl) benzamide] | > 6.00
COC(=O)c1cccc(N2CC(Oc3ccc(CCc4cccnc4)cc3)C2)c1-n1cccc1 [Example 29, methyl 3-(3-(4-(2-(pyridin-3-yl)ethyl)phenoxy)azetidin-1-yl)-2-(1H-pyrrol-1-yl) benzoate] | < 4.30
O=C(O)c1cccc(N2CC(Oc3ccc(CCc4cccnc4)cc3)C2)c1-n1cccc1 [Example 29a, 3-(3-(4-(2-(pyridin-3-yl)ethyl)phenoxy)azetidin-1-yl)-2-(1H-pyrrol-1-yl) benzoic acid] | < 4.30
COC(=O)c1cccc(N2CC(Oc3ccc(COc4cccs4)cc3)C2)c1-n1cccc1 [Example 30, methyl 2-(1H-pyrrol-1-yl)-3-(3-(4-((thiophen-2-yloxy)methyl)phenoxy)azetidin-1-yl) benzoate] | < 4.30
O=C(O)c1cccc(N2CC(Oc3ccc(COc4cccs4)cc3)C2)c1-n1cccc1 [Example 30a, 2-(1H-pyrrol-1-yl)-3-(3-(4-((thiophen-2-yloxy)methyl)phenoxy)azetidin-1-yl) benzoic acid] | < 4.30
COC(=O)c1cccc(N2CC(Oc3ccc(NC(=O)c4cccnc4)cc3)C2)c1-n1cccc1 [Example 31, methyl 3-(3-(4-(nicotinamido)phenoxy)azetidin-1-yl)-2-(1H-pyrrol-1-yl) benzoate] | 4.30 to 5.00
O=C(Nc1ccc(OC2CN(c3cccc(C(=O)O)c3-n3cccc3)C2)cc1)c1cccnc1 [Example 31a, 3-(3-(4-(nicotinoamido)phenoxy)azetidin-1-yl)-2-(1H-pyrrol-1-yl) benzoic acid] | 4.30 to 5.00
O=C(Nc1ccc(OC2CN(c3cccc(C(=O)NO)c3-n3cccc3)C2)cc1)c1cccnc1 [Example 31b, N-(4-((1-(3-(hydroxycarbamoyl)-2-(1H-pyrrol-1-yl)phenyl)azetidin-3-yl)oxy)phenyl) nicotinamide] | > 6.00
COC(=O)c1cccc(N2CC(Oc3ccc(COc4ccn(C)n4)cc3)C2)c1-n1cccc1 [Example 32, methyl 3-(3-(4-(((1-methyl-1H-pyrazol-3-yl)oxy)methyl)phenoxy)azetidin-1-yl)-2-(1H-pyrrol-1-yl) benzoate] | < 4.30
Cn1ccc(OCc2ccc(OC3CN(c4cccc(C(=O)O)c4-n4cccc4)C3)cc2)n1 [Example 32a, 3-(3-(4-(((1-methyl-1H-pyrazol-3-yl)oxy)methyl)phenoxy)azetidin-1-yl)-2-(1H-pyrrol-1-yl) benzoic acid] | < 4.30
COC(=O)c1cccc(N2CC(Oc3ccc(COc4ccsn4)cc3)C2)c1-n1cccc1 [Example 33, methyl 3-(3-(4-((isothiazol-3-yloxy)methyl)phenoxy)azetidin-1-yl)-2-(1H-pyrrol-1-yl) benzoate] | < 4.30
O=C(O)c1cccc(N2CC(Oc3ccc(COc4ccsn4)cc3)C2)c1-n1cccc1 [Example 33a, 3-(3-(4-((isothiazol-3-yloxy)methyl)phenoxy)azetidin-1-yl)-2-(1H-pyrrol-1-yl) benzoic acid] | < 4.30
COC(=O)c1cccc(N2CC(Oc3ccc(NC(=O)Nc4cccnc4)cc3)C2)c1-n1cccc1 [Example 34, methyl 3-(3-(4-(3-(pyridin-3-yl)ureido)phenoxy)azetidin-1-yl)-2-(1H-pyrrol-1-yl) benzoate] | > 6.00
O=C(Nc1ccc(OC2CN(c3cccc(C(=O)O)c3-n3cccc3)C2)cc1)Nc1cccnc1 [Example 34a, 3-(3-(4-(3-(pyridin-3-yl)ureido)phenoxy)azetidin-1-yl)-2-(1H-pyrrol-1-yl) benzoic acid] | 5.00 to 6.00
O=C(Nc1ccc(OC2CN(c3cccc(C(=O)NO)c3-n3cccc3)C2)cc1)Nc1cccnc1 [Example 34b, N-hydroxy-3-(3-(4-(3-(pyridin-3-yl)ureido)phenoxy)azetidin-1-yl)-2-(1H-pyrrol-1-yl) benzamide] | > 6.00
COC(=O)c1cccc(N2CC(Oc3ccc(CC(=O)Nc4ccccc4)cc3)C2)c1-n1cccc1 [Example 35, methyl 3-(3-(4-(2-oxo-2-(phenylamino)ethyl)phenoxy)azetidin-1-yl)-2-(1H-pyrrol-1-yl) benzoate] | < 4.30
O=C(Cc1ccc(OC2CN(c3cccc(C(=O)O)c3-n3cccc3)C2)cc1)Nc1ccccc1 [Example 35a, 3-(3-(4-(2-oxo-2-(phenylamino)ethyl)phenoxy)azetidin-1-yl)-2-(1H-pyrrol-1-yl) benzoic acid] | < 4.30
